Results as given in publication PMC12481576, “Barbituric Acid Derivatives as Covalent Inhibitors of Leishmania braziliensis Dihydroorotate Dehydrogenase” (Journal of Medicinal Chemistry, 2025).
Several values for one entry are separate records, joined by “and”; a condition that tells them apart may be missing. Identical values can stand only once. Like-named read-outs stand apart in the source and are kept apart here.

How the values were obtained:
[1] = Mouse liver microsome stability in the absence of cofactors (NCF); details: mouse liver microsomes, 60 min, no cofactor (NCF), raw LC-MS area
in vitro [2] = details: mouse, microsomes, pH 7.4, % Remaining, T=60 NCF
[3] = for Raw data: analyte peak area, T=0: 0 min; for Raw data: analyte peak area, T=0 / Raw data: analyte peak area, T=5 / Raw data: analyte peak area, T=10 / Raw data: analyte peak area, T=20 / Raw data: analyte peak area, T=30 / Raw data: analyte peak area, T=60: raw LC-MS area; for Raw data: analyte peak area, T=5: 5 min; for Raw data: analyte peak area, T=10: 10 min; for Raw data: analyte peak area, T=20: 20 min; for Raw data: analyte peak area, T=30: 30 min; for Raw data: analyte peak area, T=60: 60 min
in vitro [4] = details: liver microsomes; for microsomal CLint at 1 μM / remaining at 5 min, 1 μM: male, CD1, mouse; for remaining at 5 min, 1 μM / remaining at 10 min, 1 µM / remaining at 20 min, 1 µM / remaining at 0.5 h, 1 µM / remaining at 1 h, 1 µM: pH 7.4, % Remaining; for remaining at 5 min, 1 μM: T=5 min; for remaining at 10 min, 1 µM / remaining at 20 min, 1 µM / remaining at 0.5 h, 1 µM / remaining at 1 h, 1 µM: mouse; for remaining at 10 min, 1 µM: T=10 min; for remaining at 20 min, 1 µM: T=20 min; for remaining at 0.5 h, 1 µM: T=30 min, 30 min; for remaining at 1 h, 1 µM: T=60 min, 60 min
[5] = mouse liver microsomes, replicate 1 (left block)
[6] = mouse liver microsomes, replicate 2 (right block)
[7] = n=1, mouse liver microsomes, 1 µM, n=1
[8] = n=2, mouse liver microsomes, 1 µM, n=2

O=C(O)Cc1ccccc1Nc1c(Cl)cccc1Cl [Diclofenac]
Raw data: analyte peak area, T=60 NCF ([1]; replicate 1 (left block)): 17862
Raw data: analyte peak area, T=60 NCF ([1]; replicate 2 (right block)): 19654
remaining at 1 h, 1 µM (in vitro [2]; n=1): 98.3%
remaining at 1 h, 1 µM (in vitro [2]; n=2): 88.5%
Calculated T-half (min), Average ([3]; mouse liver microsomes (CD1 male), 0.4 mg/ml protein, test conc 1 µM, average of n=1 and n=2): 59.3 min
Calculated T-half (min), n=1 ([3]; mouse liver microsomes (CD1 male), 0.4 mg/ml protein, test conc 1 µM, replicate n=1): 62.0 min and 61.99 min
Calculated T-half (min), n=2 ([3]; mouse liver microsomes (CD1 male), 0.4 mg/ml protein, test conc 1 µM, replicate n=2): 56.6 min and 56.57 min
Raw data: analyte peak area, T=0 [3, 5]: 17523
Raw data: analyte peak area, T=0 [3, 6]: 19401
Calculated CLint, app (µl/min/mg), n=1 ([3]; mouse liver microsomes, 0.4 mg/ml protein, 1 µM, replicate n=1): 27.95 µL/min/mg
Calculated CLint, app (µl/min/mg), n=2 ([3]; mouse liver microsomes, 0.4 mg/ml protein, 1 µM, replicate n=2): 30.63 µL/min/mg
Modified T-half (min), Average ([3]; mouse liver microsomes, 0.4 mg/ml, 1 µM, average, limited to T Half range 3.00 - […]): 59.3 min
Raw data: analyte peak area, T=5 [3, 5]: 17080
Raw data: analyte peak area, T=5 [3, 6]: 16757
Raw data: analyte peak area, T=10 [3, 5]: 15901
Raw data: analyte peak area, T=10 [3, 6]: 17016
Raw data: analyte peak area, T=20 [3, 5]: 13027
Raw data: analyte peak area, T=20 [3, 6]: 13336
Raw data: analyte peak area, T=30 [3, 5]: 11583
Raw data: analyte peak area, T=30 [3, 6]: 11936
Raw data: analyte peak area, T=60 [3, 5]: 10413
Raw data: analyte peak area, T=60 [3, 6]: 8808
microsomal CLint at 1 μM (in vitro [4]; pH 7.4): 27.9 µL/min/mg
remaining at 5 min, 1 μM (in vitro [4]; [7]): 94%
remaining at 5 min, 1 μM (in vitro [4]; [8]): 89.2%
microsomal CLint at 1 μM (in vitro [4]; pH 7.4, Calculated CLint, app (µl/min/mg), Average, mouse liver microsomes, 0.4 mg/ml protein, 1 µM): 29.3 µL/min/mg
microsomal CLint at 1 μM (in vitro [4]; pH 7.4, Calculated CLint, app (µl/min/mg), n=1, mouse liver microsomes, 0.4 mg/ml protein, 1 µM, replicate n=1): 27.9 µL/min/mg
microsomal CLint at 1 μM (in vitro [4]; pH 7.4, Calculated CLint, app (µl/min/mg), n=2, mouse liver microsomes, 0.4 mg/ml protein, 1 µM, replicate n=2): 30.6 µL/min/mg
remaining at 10 min, 1 µM (in vitro [4]; [7]): 86.6%
remaining at 10 min, 1 µM (in vitro [4]; [8]): 87%
remaining at 20 min, 1 µM (in vitro [4]; [7]): 79.5%
remaining at 20 min, 1 µM (in vitro [4]; [8]): 79%
remaining at 0.5 h, 1 µM (in vitro [4]; [7]): 62%
remaining at 0.5 h, 1 µM (in vitro [4]; [8]): 63%
remaining at 1 h, 1 µM (in vitro [4]; [7]): 52.3%
remaining at 1 h, 1 µM (in vitro [4]; [8]): 47.8%
